The values that follow come from US12049439B2 (OrsoBio, Inc., priority 2018, dated 2024).

By EC50 is commonly meant the concentration giving half of the maximal effect.

Where only a bound is given, the exact number is not on record here.

The assay has as its system PC-3 cells. Kind of assay: PC-3 Oxygen Rate Consumption (OCR) Assay. The class given is cell-based. The following applies: Homo sapiens, 0.05 h, medium with 2% FBS, OCR at 3-min post-injection normalized to % increase over DMSO-treated cells, concentration for half-maximal OCR increase, read-out: EC50-PC3-OCR-FBS-3min. Summed up: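 PC-3 cells seeded a day before, equilibrated 1 h in XF medium with 10 mM glucose, 1 mM pyruvate, 2% FBS, non-CO2 at 37 °C. Compound injected after basal OCR reads; OCR at 3 min post-injection normalized as % increase over DMSO, EC50 = half-maximal increase; six replicates.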
On to `CS(=O)(=O)c1ccc(S(=O)(=O)Nc2cc(C(F)(F)F)ccc2C(=O)NC23CC(C#N)(C2)C3)cc1` [Example 18, N-(3-cyanobicyclo[1.1.1]pentan-1-yl)-2-((4-(methylsulfonyl)phenyl)sulfonamido)-4-(trifluoromethyl)benzamide], for which the EC50 turned out to be 114 µM. Under `O=C(NC12CCC(C(F)(F)F)(CC1)CC2)c1ccc(C(F)(F)F)cc1NS(=O)(=O)C1CCS(=O)(=O)CC1` [Example 230, 2-((1,1-dioxidotetrahydro-2H-thiopyran)-4-sulfonamido)-4-(trifluoromethyl)-N-(4-(trifluoromethyl)bicyclo[2.2.2]octan-1-yl)benzamide] stands 5.59 µM. Under `N#CC12CCC(NC(=O)c3cc(Cl)ccc3NS(=O)(=O)CCC(F)(F)F)(CC1)CC2` [Example 221, 5-chloro-N-(4-cyanobicyclo[2.2.2]octan-1-yl)-2-((3,3,3-trifluoropropyl)sulfonamido)benzamide] stands 1.09 µM. Under `N#CC12CCC(NC(=O)c3cc(C(F)(F)F)ccc3NS(=O)(=O)C3CCOCC3)(CC1)CC2` [Example 204, N-(4-cyanobicyclo[2.2.2]octan-1-yl)-2-((tetrahydro-2H-pyran)-4-sulfonamido)-5-(trifluoromethyl)benzamide] stands 15.7 µM.

With `CS(=O)(=O)Nc1ccc(SC(F)(F)F)cc1C(=O)NC12CC(C#N)(C1)C2` [Example 243, N-(3-cyanobicyclo[1.1.1]pentan-1-yl)-2-(methylsulfonamido)-5-((trifluoromethyl)thio)benzamide], the EC50 was 6.14 µM. Take `CC(C)(C)S(=O)(=O)Nc1ccc(C(F)(F)F)cc1C(=O)NC12CCC(C(=O)O)(CC1)CC2` [Example 156, 4-(2-((1,1-dimethylethyl)sulfonamido)-5-(trifluoromethyl)benzamido)bicyclo[2.2.2]octane-1-carboxylic Acid]: the EC50 was no less than 200 µM. Under `CS(=O)(=O)Nc1ccc(OC(F)(F)F)cc1C(=O)NC12CCC(C#N)(CC1)CC2` [Example 185, N-(4-cyanobicyclo[2.2.2]octan-1-yl)-2-(methylsulfonamido)-5-(trifluoromethoxy)benzamide] stands 32 µM; under `CN(C)S(=O)(=O)c1ccc(S(=O)(=O)Nc2cc(C(F)(F)F)ccc2C(=O)NC23CC(c4ccccc4)(C2)C3)cc1` [Example 30, 2-((4-(N,N-dimethylsulfamoyl)phenyl)sulfonamido)-N-(3-phenylbicyclo[1.1.1]pentan-1-yl)-4-(trifluoromethyl)benzamide], 1.11 µM; under `CC(C)(C)c1ccc(C(=O)NC23CC(c4ccccc4)(C2)C3)c(NS(=O)(=O)c2ccc(S(C)(=O)=O)cc2)c1` [Example 15, 4-(tert-butyl)-2-((4-(methylsulfonyl)phenyl)sulfonamido)-N-(3-phenylbicyclo[1.1.1]pentan-1-yl)benzamide], 10.9 µM.

As for `CC(C)(C)S(=O)(=O)Nc1ccc(C(F)(F)F)cc1C(=O)NC12CC(C#N)(C1)C2` [Example 164, N-(3-cyanobicyclo[1.1.1]pentan-1-yl)-2-((1,1-dimethylethyl)sulfonamido)-5-(trifluoromethyl)benzamide], the EC50 was determined as 1.74 µM. `CC(C)S(=O)(=O)Nc1ccc(C(F)(F)F)cc1C(=O)NC12CC(Cl)(C1)C2` [Example 70, N-(3-chlorobicyclo[1.1.1]pentan-1-yl)-2-((1-methylethyl)sulfonamido)-5-(trifluoromethyl)benzamide]: the EC50 was determined as 0.591 µM. Under `CC(C)(C)S(=O)(=O)Nc1cc(C#N)ccc1C(=O)NC12CCC(C#N)(CC1)CC2` [Example 77, 4-cyano-N-(4-cyanobicyclo[2.2.2]octan-1-yl)-2-((1,1-dimethylethyl)sulfonamido)benzamide] stands 8.65 µM; under `CS(=O)(=O)Nc1cc(C(F)(F)F)ccc1C(=O)NC12CC(C(F)(F)F)(C1)C2` [Example 147, 2-(methylsulfonamido)-4-(trifluoromethyl)-N-(3-(trifluoromethyl)bicyclo[1.1.1]pentan-1-yl)benzamide], 1.58 µM; under `O=C(NC12CC(C(F)(F)F)(C1)C2)c1ccc(F)cc1NS(=O)(=O)c1ccc(S(=O)(=O)C2CC2)cc1` [Example 28, 2-((4-(cyclopropylsulfonyl)phenyl)sulfonamido)-4-fluoro-N-(3-(trifluoromethyl)bicyclo[1.1.1]pentan-1-yl)benzamide], 2.76 µM. Under `CN(C)S(=O)(=O)c1ccc(S(=O)(=O)Nc2cc(C(F)(F)F)ccc2C(=O)NC23CC(C#N)(C2)C3)cc1` [Example 42, N-(3-cyanobicyclo[1.1.1]pentan-1-yl)-2-((4-(N,N-dimethylsulfamoyl)phenyl)sulfonamido)-4-(trifluoromethyl)benzamide] stands 27.5 µM; under `CS(=O)(=O)Nc1cc(Br)ccc1C(=O)NC12CC(C1)C2` [Example 47, N-(bicyclo[1.1.1]pentan-1-yl)-4-bromo-2-(methylsulfonamido)benzamide], 17.3 µM. With `CS(=O)(=O)c1ccc(S(=O)(=O)Nc2cc(C(F)(F)F)ccc2C(=O)NC23CC(C(F)(F)F)(C2)C3)cc1` [Example 8, 2-((4-(methylsulfonyl)phenyl)sulfonamido)-4-(trifluoromethyl)-N-(3-(trifluoromethyl)bicyclo[1.1.1]pentan-1-yl)benzamide], the EC50 came to 4.1 µM. With `CS(=O)(=O)Nc1cc(F)ccc1C(=O)NC12CC(Cl)(C1)C2` [Example 79, N-(3-chlorobicyclo[1.1.1]pentan-1-yl)-4-fluoro-2-(methylsulfonamido)benzamide], the EC50 was determined as 21.2 µM. Under `N#CC12CCC(NC(=O)c3cc(F)ccc3NS(=O)(=O)CCC(F)(F)F)(CC1)C2` [Example 222, N-(4-cyanobicyclo[2.2.1]heptan-1-yl)-5-fluoro-2-((3,3,3-trifluoropropyl)sulfonamido)benzamide] stands 5.7 µM. Consider `N#CC12CC(NC(=O)c3ccc(C(F)(F)F)cc3NS(=O)(=O)c3ccc4ccccc4c3)(C1)C2` [Example 35, N-(3-cyanobicyclo[1.1.1]pentan-1-yl)-2-(naphthalene-2-sulfonamido)-4-(trifluoromethyl)benzamide], for which the EC50 stood at 1.21 µM. Under `CS(=O)(=O)Nc1cc(C(F)(F)F)ccc1C(=O)NC12CCC(C#N)(CC1)CC2` [Example 168, N-(4-cyanobicyclo[2.2.2]octan-1-yl)-2-(methylsulfonamido)-4-(trifluoromethyl)benzamide] stands 15 µM; under `O=C(NC12CC(C(F)(F)F)(C1)C2)c1ccc(C(F)(F)F)cc1NS(=O)(=O)c1ccc(-n2cnnn2)cc1` [Example 17, 2-((4-(1H-tetrazol-1-yl)phenyl)sulfonamido)-4-(trifluoromethyl)-N-(3-(trifluoromethyl)bicyclo[1.1.1]pentan-1-yl)benzamide], 5.83 µM. Consider `CN(C)S(=O)(=O)Nc1cc(F)c(F)cc1C(=O)NC12CCC(C#N)(CC1)CC2` [Example 236, N-(4-cyanobicyclo[2.2.2]octan-1-yl)-2-((N,N-dimethylsulfamoyl)amino)-4,5-difluorobenzamide], for which the EC50 amounted to 25.2 µM.

Take `CS(=O)(=O)c1ccc(S(=O)(=O)Nc2cc(Cl)c(Cl)cc2C(=O)NC23CC(C(F)(F)F)(C2)C3)cc1` [Example 92, 4,5-dichloro-2-((4-(methylsulfonyl)phenyl)sulfonamido)-N-(3-(trifluoromethyl)bicyclo[1.1.1]pentan-1-yl)benzamide]: the EC50 stood at 8.09 µM. For the molecule `CC(C)(C)S(=O)(=O)Nc1ccc(C(F)(F)F)cc1C(=O)NC12CC(C(F)(F)F)(C1)C2` [Example 157, 2-((1,1-dimethylethyl)sulfonamido)-5-(trifluoromethyl)-N-(3-(trifluoromethyl)bicyclo[1.1.1]pentan-1-yl)benzamide], the concentration giving a half-maximal response (EC50) was found to be 0.352 µM. In the case of `CS(=O)(=O)Nc1cc(Br)ccc1C(=O)NC12CC(c3ccccc3)(C1)C2` [Example 49, 4-bromo-2-(methylsulfonamido)-N-(3-phenylbicyclo[1.1.1]pentan-1-yl)benzamide], the 50% effective concentration (EC50) worked out at 4.99 µM.

Take `N#CC12CCC(NC(=O)c3cc(C(F)(F)F)ccc3NS(=O)(=O)C3COC3)(CC1)CC2` [Example 75, N-(4-cyanobicyclo[2.2.2]octan-1-yl)-2-(oxetane-3-sulfonamido)-5-(trifluoromethyl)benzamide]: the EC50 is 25.9 µM. Under `CC1(S(=O)(=O)Nc2cc(C(F)(F)F)ccc2C(=O)NC23CCC(C#N)(CC2)CC3)CC1` [Example 67, N-(4-cyanobicyclo[2.2.2]octan-1-yl)-2-((1-methylcyclopropane)-1-sulfonamido)-4-(trifluoromethyl)benzamide] stands 5.92 µM; under `N#CC12CCC(NC(=O)c3cc(Cl)ccc3NS(=O)(=O)C3(C#N)CC3)(CC1)CC2` [Example 211, 5-chloro-N-(4-cyanobicyclo[2.2.2]octan-1-yl)-2-((1-cyanocyclopropane)-1-sulfonamido)benzamide], 15.4 µM; under `CN(C)S(=O)(=O)Nc1cc(F)ccc1C(=O)NC12CC(C(F)(F)F)(C1)C2` [Example 188, 2-((N,N-dimethylsulfamoyl)amino)-4-fluoro-N-(3-(trifluoromethyl)bicyclo[1.1.1]pentan-1-yl)benzamide], 3.29 µM.

As for `NC(=O)c1ccc(S(=O)(=O)Nc2cc(C(F)(F)F)ccc2C(=O)NC23CC(c4ccccc4)(C2)C3)cc1` [Example 51, 2-((4-carbamoylphenyl)sulfonamido)-N-(3-phenylbicyclo[1.1.1]pentan-1-yl)-4-(trifluoromethyl)benzamide], the EC50 was found to be 28.8 µM. `CS(=O)(=O)c1ccc(S(=O)(=O)Nc2cc(Br)ccc2C(=O)NC23CC(C(F)(F)F)(C2)C3)cc1` [Example 46, 4-bromo-2-((4-(methylsulfonyl)phenyl)sulfonamido)-N-(3-(trifluoromethyl)bicyclo[1.1.1]pentan-1-yl)benzamide]: the EC50 was determined as 3.48 µM.
